Reference: patent US10456358B2, “Isoxazoline compositions and use thereof in the prevention or treatment of parasite infestations in animals” (Intervet Inc., priority 2013, dated 2019)

System: poultry red mite (Dermanyssus gallinae)
Assay: Efficacy study: medicated drinking water against artificially induced poultry red mite infestations of laying hens
Type: in vivo
Protocol: Groups A-D (n=6) were treated with doses of 2, 1 and 0.5 mg fluralaner/kg BW once or 1 mg fluralaner/kg BW twice (0.5 mg/kg BW on 2 occasions).
Drinking water consumption in each was measured on three days prior to administration to calculate the average daily water consumption. Medicated water was prepared by diluting a fluralaner solution (10 mg/mL) as shown in the table below to the calculated fluralaner concentration.
On D0 (group D additionally on D7), the hens in groups A-D received fluralaner via medicated drinking water. Group E received un-medicated drinking water ad libitum.
The dose to be administered was calculated based on average body weights of each treatment group, obtained one day before treatment (D-1, D 6). A fluralaner stock solution was diluted in the drinking water to prepare medicated water ready for consumption.
The volume of medicated water offered per group on D0 (group D also on D7) was approximately 50% of the calculated mean daily water intake measured previously in the respective group in order to ensure consumption of the full dose.
Once all medicated water was consumed the other 50% volume of the mean daily water intake was supplied as tap water in the same drinker.
On Day 1, Day 5, Day 8, Day 12, D15, D19 and D22 four of six hens per group were infested with approximately 200 vital, D. gallinae mites (unfed nymphs and adults that starved before infestation for 7 days).
From each infested hen approximately 25 engorged mites were collected and incubated for approximately 24 hours. The dead, damaged and/or live mites were counted visually using a binocular.
Mites were classified as dead if no movement was determined or mites lay in a dorsal position. Mites were classified as damaged if their movement was uncoordinated.
The Mite Mortality and Mite Inhibition percentage was calculated for each treated group in comparison to a not-treated negative control group.

[1] = Group A, 2 mg/kg BW once (D0) via drinking water, laying hens, infestation on D1
[2] = Group A, 2 mg/kg BW once (D0) via drinking water, laying hens, infestation on D5
[3] = Group A, 2 mg/kg BW once (D0) via drinking water, laying hens, infestation on D8
[4] = Group A, 2 mg/kg BW once (D0) via drinking water, laying hens, infestation on D12
[5] = Group A, 2 mg/kg BW once (D0) via drinking water, laying hens, infestation on D15
[6] = Group A, 2 mg/kg BW once (D0) via drinking water, laying hens, infestation on D19
[7] = Group A, 2 mg/kg BW once (D0) via drinking water, laying hens, infestation on D22
[8] = Group B, 1 mg/kg BW once (D0) via drinking water, laying hens, infestation on D1
[9] = Group B, 1 mg/kg BW once (D0) via drinking water, laying hens, infestation on D5
[10] = Group B, 1 mg/kg BW once (D0) via drinking water, laying hens, infestation on D8
[11] = Group B, 1 mg/kg BW once (D0) via drinking water, laying hens, infestation on D12
[12] = Group B, 1 mg/kg BW once (D0) via drinking water, laying hens, infestation on D15
[13] = Group B, 1 mg/kg BW once (D0) via drinking water, laying hens, infestation on D19
[14] = Group B, 1 mg/kg BW once (D0) via drinking water, laying hens, infestation on D22
[15] = Group C, 0.5 mg/kg BW once (D0) via drinking water, laying hens, infestation on D1
[16] = Group C, 0.5 mg/kg BW once (D0) via drinking water, laying hens, infestation on D5
[17] = Group C, 0.5 mg/kg BW once (D0) via drinking water, laying hens, infestation on D8
[18] = Group C, 0.5 mg/kg BW once (D0) via drinking water, laying hens, infestation on D12
[19] = Group C, 0.5 mg/kg BW once (D0) via drinking water, laying hens, infestation on D15
[20] = Group C, 0.5 mg/kg BW once (D0) via drinking water, laying hens, infestation on D19
[21] = Group C, 0.5 mg/kg BW once (D0) via drinking water, laying hens, infestation on D22
[22] = Group D, 1 (2 × 0.5) mg/kg BW (D0 and D7) via drinking water, laying hens, infestation on D1
[23] = Group D, 1 (2 × 0.5) mg/kg BW (D0 and D7) via drinking water, laying hens, infestation on D5
[24] = Group D, 1 (2 × 0.5) mg/kg BW (D0 and D7) via drinking water, laying hens, infestation on D8
[25] = Group D, 1 (2 × 0.5) mg/kg BW (D0 and D7) via drinking water, laying hens, infestation on D12
[26] = Group D, 1 (2 × 0.5) mg/kg BW (D0 and D7) via drinking water, laying hens, infestation on D15
[27] = Group D, 1 (2 × 0.5) mg/kg BW (D0 and D7) via drinking water, laying hens, infestation on D19
[28] = Group D, 1 (2 × 0.5) mg/kg BW (D0 and D7) via drinking water, laying hens, infestation on D22

Cc1cc(C2=NOC(c3cc(Cl)cc(Cl)c3)(C(F)(F)F)C2)ccc1C(=O)NCC(=O)NCC(F)(F)F (stereo not shown) [fluralaner, 4-[5-(3,5-Dichlorophenyl)-5-trifluoromethyl-4,5-dihydroisoxazol-3-yl]-2-methyl-N-[(2,2,2-trifluoro-ethylcarbamoyl)-methyl]-benzamide]
% Inhibition of D. gallinae assessed 24 hours after infestation [1]: 100% | % Mortality of D. gallinae assessed 24 hours after infestation [1]: 100% | % Inhibition of D. gallinae assessed 24 hours after infestation [2]: 100% | % Mortality of D. gallinae assessed 24 hours after infestation [2]: 100% | % Inhibition of D. gallinae assessed 24 hours after infestation [3]: 100% | % Mortality of D. gallinae assessed 24 hours after infestation [3]: 100% | % Inhibition of D. gallinae assessed 24 hours after infestation [4]: 100% | % Mortality of D. gallinae assessed 24 hours after infestation [4]: 100% | % Inhibition of D. gallinae assessed 24 hours after infestation [5]: 81% | % Mortality of D. gallinae assessed 24 hours after infestation [5]: 77% | % Inhibition of D. gallinae assessed 24 hours after infestation [6]: 14% | % Mortality of D. gallinae assessed 24 hours after infestation [6]: 1% | % Inhibition of D. gallinae assessed 24 hours after infestation [7]: 0% | % Mortality of D. gallinae assessed 24 hours after infestation [7]: 0% | % Inhibition of D. gallinae assessed 24 hours after infestation [8]: 100% | % Mortality of D. gallinae assessed 24 hours after infestation [8]: 100% | % Inhibition of D. gallinae assessed 24 hours after infestation [9]: 100% | % Mortality of D. gallinae assessed 24 hours after infestation [9]: 100% | % Inhibition of D. gallinae assessed 24 hours after infestation [10]: 100% | % Mortality of D. gallinae assessed 24 hours after infestation [10]: 100% | % Inhibition of D. gallinae assessed 24 hours after infestation [11]: 95% | % Mortality of D. gallinae assessed 24 hours after infestation [11]: 94% | % Inhibition of D. gallinae assessed 24 hours after infestation [12]: 81% | % Mortality of D. gallinae assessed 24 hours after infestation [12]: 77% | % Inhibition of D. gallinae assessed 24 hours after infestation [13]: 3% | % Mortality of D. gallinae assessed 24 hours after infestation [13]: 2% | % Inhibition of D. gallinae assessed 24 hours after infestation [14]: 0% | % Mortality of D. gallinae assessed 24 hours after infestation [14]: 0% | % Inhibition of D. gallinae assessed 24 hours after infestation [15]: 100% | % Mortality of D. gallinae assessed 24 hours after infestation [15]: 100% | % Inhibition of D. gallinae assessed 24 hours after infestation [16]: 100% | % Mortality of D. gallinae assessed 24 hours after infestation [16]: 100% | % Inhibition of D. gallinae assessed 24 hours after infestation [17]: 100% | % Mortality of D. gallinae assessed 24 hours after infestation [17]: 97% | % Inhibition of D. gallinae assessed 24 hours after infestation [18]: 75% | % Mortality of D. gallinae assessed 24 hours after infestation [18]: 55% | % Inhibition of D. gallinae assessed 24 hours after infestation [19]: 19% | % Mortality of D. gallinae assessed 24 hours after infestation [19]: 15% | % Inhibition of D. gallinae assessed 24 hours after infestation [20]: 0% | % Mortality of D. gallinae assessed 24 hours after infestation [20]: 0% | % Inhibition of D. gallinae assessed 24 hours after infestation [21]: 0% | % Mortality of D. gallinae assessed 24 hours after infestation [21]: 0% | % Inhibition of D. gallinae assessed 24 hours after infestation [22]: 100% | % Mortality of D. gallinae assessed 24 hours after infestation [22]: 100% | % Inhibition of D. gallinae assessed 24 hours after infestation [23]: 100% | % Mortality of D. gallinae assessed 24 hours after infestation [23]: 100% | % Inhibition of D. gallinae assessed 24 hours after infestation [24]: 100% | % Mortality of D. gallinae assessed 24 hours after infestation [24]: 100% | % Inhibition of D. gallinae assessed 24 hours after infestation [25]: 100% | % Mortality of D. gallinae assessed 24 hours after infestation [25]: 100% | % Inhibition of D. gallinae assessed 24 hours after infestation [26]: 99% | % Mortality of D. gallinae assessed 24 hours after infestation [26]: 98% | % Inhibition of D. gallinae assessed 24 hours after infestation [27]: 66% | % Mortality of D. gallinae assessed 24 hours after infestation [27]: 59% | % Inhibition of D. gallinae assessed 24 hours after infestation [28]: 27% | % Mortality of D. gallinae assessed 24 hours after infestation [28]: 14% | onset of action (all administered doses, via drinking water, laying hens): fast onset of action | inhibition of red poultry mites (drinking water administration to poultry animals, for at least 15 days): 99%
